Structure (SMILES)	logP
CCCCC(=O)Nc1ccccc1	2.29
O=C(Nc1ccccc1)C1CCCCCC1(F)F (stereo unspecified)	2.9
O=C(NC1CCCCC(F)(F)C1)c1ccccc1 (stereo unspecified)	2.57
O=C(c1ccccc1)N1CC2CC1C2	1.47
O=C(Nc1ccccc1)[C@@H]1C[C@H]1CF	1.12
O=C(c1ccccc1)N1CC(F)C1	0.94
O=C(NC1CCCCC1)c1ccccc1	2.72
O=C(NC1CCC1(F)F)c1ccccc1 (stereo unspecified)	1.7
O=C(c1ccccc1)N1CC2CC(F)(F)CC(C1)C2(F)F	1.84
CC12CCCC(CN1C(=O)c1ccccc1)C2 (stereo unspecified)	2.41
O=C(Nc1ccccc1)[C@H]1C[C@@H](C(F)F)C1	2.23
O=C(c1ccccc1)N1CCCC(F)(F)C1	1.65
O=C(NC1(CF)CCC1)c1ccccc1	2.03
O=C(c1ccccc1)N1CC2CCC(C1)C2(F)F	2.09
O=C(N[C@@H]1CC[C@H]1CF)c1ccccc1	1.85
O=C(NC1CC1)c1ccccc1	1.29
O=C(Nc1ccccc1)C1CCCCCC1	3.24
O=C(NC1CC(F)(F)C1)c1ccccc1	1.94
O=C(Nc1ccccc1)C1CCC1(F)F (stereo unspecified)	2.03
O=C(c1ccccc1)N1CCCCC1C(F)(F)F (stereo unspecified)	2.54
O=C(N[C@H]1C[C@H](C(F)F)C1)c1ccccc1	1.97
O=C(Nc1ccccc1)[C@H]1C[C@H](F)C1	2
O=C(c1ccccc1)N1CCCCC1C(F)F (stereo unspecified)	2.04
O=C(c1ccccc1)N1CCCC(C(F)F)C1 (stereo unspecified)	1.73
O=C(c1ccccc1)N1CCCCC1CF (stereo unspecified)	2
O=C(NC1CCCC(F)(F)C1)c1ccccc1 (stereo unspecified)	2.31

Structure (SMILES)	logP
O=C(Nc1ccccc1)[C@H]1C[C@@H]2C[C@@H]2C1	2.87
O=C(c1ccccc1)N1CCCC(F)C1 (stereo unspecified)	1.26
C[C@@H]1C[C@H]1NC(=O)c1ccccc1	1.83
O=C(Nc1ccccc1)C12CC(C(F)(F)F)(CO1)C2	2.05
O=C(c1ccccc1)N1CC(C(F)(F)F)C1	1.66
O=C(c1ccccc1)N1CC2CS(=O)(=O)CC(C1)C2(F)F	0.2
O=C(NCCC(F)(F)F)c1ccccc1	1.93
O=C(Nc1ccccc1)C1CC1(F)F (stereo unspecified)	2.07
CNC(=O)c1ccccc1	1.03
CC12CC(CN1C(=O)c1ccccc1)C2	1.75
O=C(Nc1ccccc1)C1CC12CC2(F)F (stereo unspecified)	2.66
O=C(NC1CCCCCC1(F)F)c1ccccc1 (stereo unspecified)	2.56
O=C(NC1(C(F)F)CCC1)c1ccccc1	2.48
O=C(N[C@@H]1CC[C@H]1C(F)(F)F)c1ccccc1	2.54
O=C(c1ccccc1)N1CC2COCC(C2)C1	0.84
O=C(Nc1ccccc1)[C@@H]1C[C@H]1C(F)F	2.28
O=C(N[C@H]1C[C@H](CF)C1)c1ccccc1	1.78
O=C(c1ccccc1)N1CCC(C(F)(F)F)C1 (stereo unspecified)	1.7
O=C(N[C@H]1C[C@@H](C(F)(F)F)C1)c1ccccc1	2.62
O=C(c1ccccc1)N1CCC(C(F)F)CC1	1.67
O=C(NC1CCCC1(F)F)c1ccccc1 (stereo unspecified)	1.87
O=C(N[C@@H]1C[C@H]1C(F)(F)F)c1ccccc1	1.79
CC12CCC(CC1)CN2C(=O)c1ccccc1	2.66
O=C(c1ccccc1)N1CC2CCCC(C2)C1	2.36
O=C(c1ccccc1)N1CCCC(C(F)(F)F)C1 (stereo unspecified)	2.21
O=C(c1ccccc1)N1C[C@@H](F)[C@H](F)C1	1.08

Structure (SMILES)	logP
O=C(c1ccccc1)N1C[C@H](F)C[C@H](F)C1	0.58
O=C(Nc1ccccc1)[C@H]1C[C@H]1C(F)(F)F	2.12
CCNC(=O)c1ccccc1	1.31
CC(F)(F)CCC(=O)Nc1ccccc1	2.12
O=C(NCCCC(F)(F)F)c1ccccc1	2.28
O=C(Nc1ccccc1)C1CC(F)(F)C1	2.26
O=C(N[C@H]1C[C@H]1C(F)F)c1ccccc1	1.36
O=C(c1ccccc1)N1CCCCC1	1.39
O=C(Nc1ccccc1)C1CCCCC1	2.88
O=C(NC1CC2(CCC2)C1)c1ccccc1	3.26
O=C(N[C@@H]1CC[C@H]1C(F)F)c1ccccc1	1.94
CCC(F)(F)CC(=O)Nc1ccccc1	2.26
O=C(c1ccccc1)N1CCCC1C(F)(F)F (stereo unspecified)	2.12
O=C(c1ccccc1)N1CC2CCC1(C(F)(F)F)C2 (stereo unspecified)	2.2
O=C(N[C@H]1C[C@H]1C(F)(F)F)c1ccccc1	2.16
O=C(NCC(F)(F)F)c1ccccc1	1.76
O=C(c1ccccc1)N1CCC(C(F)F)C1 (stereo unspecified)	1.4
O=C(N[C@@H]1C[C@@H]2C[C@@H]2C1)c1ccccc1	2.3
O=C(c1ccccc1)N1CCCC1	1.19
O=C(Nc1ccccc1)C1CCC1	2.26
O=C(Nc1ccccc1)C1C(F)(F)C12CC2 (stereo unspecified)	2.42
O=C(c1ccccc1)N1CC2CCCC(C1)C2(F)F	2.18
O=C(Nc1ccccc1)C1CCCC1	2.68
O=C(c1ccccc1)N1CCC1C(F)F (stereo unspecified)	1.51
